ChEMBL document CHEMBL1141727, “Isolation and cytotoxic evaluation of marine sponge-derived norterpene peroxides” (J Nat Prod, 1998)

Legend:
Assay type in all cases: functional
HCT-15 = experiment: Growth inhibition of human HCT15 cells
MDA-N = experiment: Growth inhibition of human MDA-N cells
NCI-H522 = experiment: Growth inhibition of human NCI-H522 cells
HCC 2998 = experiment: Growth inhibition of human HCC2998 cells
NCI-H322M = experiment: Growth inhibition of human NCI-H322M cells
[1] = Growth inhibition of mouse M17/ADR cells assessed as zone units at 50 ug/disk by disk diffusion agar colony formation assay
UO-31 = experiment: Growth inhibition of human UO31 cells
OVCAR-3 = experiment: Growth inhibition of human OVCAR-3 cells
SN12C = experiment: Growth inhibition of human SN12C cells
DU-145 = experiment: Growth inhibition of human DU145 cells
HT-29 = experiment: Growth inhibition of human HT-29 cells
EKVX = experiment: Growth inhibition of human EKVX cells
RXF 393 = experiment: Growth inhibition of human […] cells
UACC-257 = experiment: Growth inhibition of human UACC257 cells
M14 = experiment: Growth inhibition of human M14 cells
MC-38 = experiment: Growth inhibition of mouse C38 cells assessed as zone units at 50 ug/disk by disk diffusion agar colony formation assay
HL-60(TB) = experiment: Growth inhibition of human HL-60(TB) cells
[2] = Growth inhibition of human MCF7/ADR resistant cells; details: NCI/ADR-RES
OVCAR-4 = experiment: Growth inhibition of human OVCAR4 cells
SF-268 = experiment: Growth inhibition of human SF268 cells
P388 = experiment: Growth inhibition of mouse P388 cells assessed as zone units at 50 ug/disk by disk diffusion agar colony formation assay
[3] = Growth inhibition of human H125 cells assessed as zone units at 50 ug/disk by disk diffusion agar colony formation assay
BT-549 = experiment: Growth inhibition of human BT549 cells
NCI-H226 = experiment: Growth inhibition of human NCI-H226 cells
KM12 = experiment: Growth inhibition of human KM12 cells
U-251 = experiment: Growth inhibition of human U251 cells
L1210 = experiment: Growth inhibition of mouse L1210 cells assessed as zone units at 50 ug/disk by disk diffusion agar colony formation assay
HOP-92 = experiment: Growth inhibition of human HOP92 cells
HOP-62 = experiment: Growth inhibition of human HOP62 cells
NCI-H460 = experiment: Growth inhibition of human NCI-H460 cells
SNB-19 = experiment: Growth inhibition of human SNB19 cells
SNB-75 = experiment: Growth inhibition of human SNB75 cells
SW-620 = experiment: Growth inhibition of human SW620 cells
OVCAR-5 = experiment: Growth inhibition of human OVCAR5 cells
SF-295 = experiment: Growth inhibition of human SF295 cells
TK-10 = experiment: Growth inhibition of human TK10 cells
COLO 205 = experiment: Growth inhibition of human COLO205 cells
A498 = experiment: Growth inhibition of human A498 cells
NCI-H23 = experiment: Growth inhibition of human NCI-H23 cells
IGROV-1 = experiment: Growth inhibition of human IGROV1 cells
UACC-62 = experiment: Growth inhibition of human UACC62 cells
SK-OV-3 = experiment: Growth inhibition of human SKOV3 cells
LOX IMVI = experiment: Growth inhibition of human LOXIMVI cells
ACHN = experiment: Growth inhibition of human ACHN cells
K562 = experiment: Growth inhibition of human K562 cells
HCT-116 = experiment: Growth inhibition of human HCT116 cells
PC-3 = experiment: Growth inhibition of human PC3 cells
SK-MEL-5 = experiment: Growth inhibition of human SK-MEL-5 cells
MOLT-4 = experiment: Growth inhibition of human MOLT4 cells
786-0 = experiment: Growth inhibition of human 786-0 cells
MCF7 = experiment: Growth inhibition of human MCF7 cells
SF-539 = experiment: Growth inhibition of human SF539 cells
SK-MEL-28 = experiment: Growth inhibition of human SK-MEL-28 cells
SK-MEL-2 = experiment: Growth inhibition of human SK-MEL-2 cells
CCRF-CEM = experiment: Growth inhibition of human CCRF-CEM cells
CAKI-1 = experiment: Growth inhibition of human Caki1 cells
A549 = experiment: Growth inhibition of human A549 cells
SR = experiment: Growth inhibition of human SR cells
OVCAR-8 = experiment: Growth inhibition of human OVCAR8 cells
T47D = experiment: Growth inhibition of human T47D cells
[4] = Growth inhibition of human Hs 578T cells
[5] = Growth inhibition of human […] cells
MDA-MB-435 = experiment: Growth inhibition of human MDA-MB-435 cells
MDA-MB-231 = experiment: Growth inhibition of human MDA-MB-231 cells
Malme-3M = experiment: Growth inhibition of human MALME-3M cells

C=C1CCCC(C)(C)C1CC[C@]1(C)CC[C@H]([C@@H](C)C(=O)OC)OO1 (stereo not given in full) [NUAPAPUIN B]
GI50 (HCT-15): 13.1 µM | GI50 (MDA-N): 3.54 µM | GI50 (NCI-H522): 3.05 µM | GI50 (HCC 2998): 3.68 µM | GI50 (NCI-H322M): 6.9 µM | Activity [1]: 100 Zone units | GI50 (UO-31): 0.52 µM | GI50 (OVCAR-3): 21.8 µM | GI50 (SN12C): 3.73 µM | GI50 (DU-145): 3.67 µM | GI50 (HT-29): 0.38 µM | GI50 (EKVX): 7.9 µM | GI50 (RXF 393): 2.62 µM | GI50 (UACC-257): 16.3 µM | GI50 (M14): 6.43 µM | Activity (MC-38): 300 Zone units | GI50 (HL-60(TB)): 1.6 µM | GI50 [2]: 5.67 µM | GI50 (OVCAR-4): 4.01 µM | GI50 (SF-268): 3.19 µM | Activity (P388): 180 Zone units | Activity [3]: 200 Zone units | GI50 (BT-549): 4.95 µM | GI50 (NCI-H226): 6.17 µM | GI50 (KM12): 0.4 µM | GI50 (U-251): 2.91 µM | Activity (L1210): 180 Zone units | GI50 (HOP-92): 0.76 µM | GI50 (HOP-62): 0.71 µM | GI50 (NCI-H460): 0.91 µM | GI50 (SNB-19): 5.47 µM | GI50 (SNB-75): 2.67 µM | GI50 (SW-620): 7.53 µM | GI50 (OVCAR-5): 4.76 µM | GI50 (SF-295): 4.42 µM | GI50 (TK-10): 4.21 µM | GI50 (COLO 205): 4.54 µM | GI50 (A498): 4.92 µM | GI50 (NCI-H23): 3.54 µM | GI50 (IGROV-1): 0.5 µM | GI50 (UACC-62): 4.13 µM | GI50 (SK-OV-3): 4.4 µM | GI50 (LOX IMVI): 0.47 µM | GI50 (ACHN): 0.48 µM | GI50 (K562): 6.38 µM | GI50 (HCT-116): 8.14 µM | GI50 (PC-3): 3.63 µM | GI50 (SK-MEL-5): 3.94 µM | GI50 (MOLT-4): 7.04 µM | GI50 (786-0): 0.27 µM | GI50 (MCF7): 18.4 µM | GI50 (SF-539): 6.25 µM | GI50 (SK-MEL-28): 20.6 µM | GI50 (SK-MEL-2): 8.28 µM | GI50 (CCRF-CEM): 1.27 µM | GI50 (CAKI-1): 0.32 µM | GI50 (A549): 0.64 µM | GI50 (SR): 2.17 µM | GI50 (OVCAR-8): 5.76 µM | GI50 (T47D): 2.94 µM | GI50 [4]: 4.6 µM | GI50 [5]: 4.04 µM | GI50 (MDA-MB-435): 4.34 µM | GI50 (MDA-MB-231): 757 µM | GI50 (Malme-3M): 21 µM
